Consider four compounds from patent publication US20240043439A1, “COMPOUNDS AS C5AR INHIBITORS” (Kira Pharmaceuticals (Suzhou) Ltd., priority 2020, published 2024).

Assay [1] concerns human C5a (hC5a) induced neutropenia. The assay is described as follows: C5a induced neutropenia in a cynomolgus model. It counts as in vivo. The following applies: cynomolgus monkey, pre-dosed 4 hours before hC5a, compared to vehicle. On the procedure: To study the efficacy of compounds in a non-human primate model, human C5a (hC5a) induced neutropenia is studied in a cynomolgus model. Intravenous injection of hC5a induced upregulation of adhesion molecules on blood vessel walls, leading to decreased neutrophils in the blood stream and attached to the vascular walls. Monkeys were pre-dosed with vehicle or specific compound, and 4 hours later, hC5a ([…], ACROBiosystems) was administrated and 1 minute later neutrophils are quantified in peripheral blood.
The percent change in the number of neutrophils in the blood collected after C5a injection (241 min) was calculated relative to the sample collected prior to C5a injection (239 min). The plasma concentration of each compound was calculated as the average concentration prior to C5a injection of 2 individual monkeys.

In assay [2] the test system is C5a induced CD11b upregulation on neutrophil. The assay is described as follows: Neutrophil CD11b FACS assay, human C5aR knock-in mice whole blood after oral pre-dosing. The class given is in vivo. The following applies: oral pre-dosing 0.3 mg/kg and 3 mg/kg. On the procedure:
(§1) Peripheral blood samples were collected from Cynomolgus monkey/huC5aR knock-in mice at indicated timepoints. 100 μl aliquots were mixed with a range of C5a concentrations and incubated at 37° C. for 30 min. Blood was cooled down on wet ice for at least 3 min, anti-CD11b monoclonal antibody (BD Biosciences) was added and incubated at 4° C. for 60 min. Red blood cells were lysed by adding erythrocyte lysis buffer (Solarbio) and incubated on ice for 10 min, white blood cells were washed by pre-cold PBS twice and suspended by 2% PFA/PBS buffer. Neutrophils were classified with flow cytometry by their forward/side-scatter properties and mean fluorescence intensity of anti-CD11b staining on cells was read by FACS (Beckman).
Whole blood was collected at indicated timepoints (2 hours or 12 hours after dosing compound) and further stimulated with human C5a in vitro. CD11b FACS antibody was added and incubate for 60 min at 4 C before red blood cells were lysed. The percent of CD11b signal was calculated by the formula %=(MFI[C5a conc.]-MFI[C5a=0])/(MFI[max]-MFI[C5a=0])×100%. Each data point was the average SD of 3 individual mice.
Whole blood was collected at 2 hrs after dosing compound and further stimulated with human C5a in vitro. CD11b FACS antibody was added and incubate for 60 min at 4 C before red blood cells were lysed. The percent of CD11b signal was calculated by the formula %=(MFI[C5a conc.]-MFI[C5a=0])/(MFI[max]-MFI[C5a=0])×100%. Each data point was the average of 2 individual mice.
Whole blood was collected at 2 hrs after dosing compound and further stimulated with human C5a in vitro. CD11b FACS antibody was added and incubate for 60 min at 4 C before red blood cells were lysed. The percent of CD11b signal was calculated by the formula %=(MFI[C5a conc.]-MFI[C5a=0])/(MFI[max]-MFI[C5a=0])×100%. Each data point was the average±SD of 2 individual mice.
On the technique in general: In flow cytometry, cells or beads pass a laser one at a time.

The target of assay [3] is T1, C5aR (Homo sapiens (Human), UniProt P21730). The assay is described as follows: Inhibition of C5a-C5aR binding determined by cell migration assay (U937/C5aR cells). It counts as cell-based. To be noted: U937/C5aR cell migration towards human C5a, 180 min. In outline:
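Transwell migration through 3.0 µm pores: U937/C5aR cells in HBSS + 1% FBS were premixed with compound, with human C5a plus compound in the bottom well. After 30 min preincubation, cells migrated 180 min at 37 °C. Migrated cells were quantified by CellTiter-Glo luminescence.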

For assay [4], the system named is C5a induced CD11b upregulation on granulocytes. Briefly: Neutrophil CD11b FACS assay, cyno monkey whole blood after oral pre-dosing. To be noted: oral pre-dosing at 10 mg/kg; for EC50 at 10 mg/kg: Macaca fascicularis, Neutrophil, read-out: EC50 (C5a induced CD11b upregulation on granulocytes ex-vivo). The class given is in vivo. As for the experimental part:
as §1
The percent of CD11b signal was calculated by the formula %=(MFI[C5a conc.]-MFI[C5a=0])/(MFI[max]-MFI[C5a=0])×100%. Each data point was the average of 2 individual monkeys. The plasma concentration of each compound is the average concentration prior to C5a injection of 2 individual monkeys.

The target in assay [5] is T1, C5aR. Briefly: Calcium mobilization (U937/C5aR or HEK293/C5aR cells, FLIPR). The following applies: agonist human C5a at EC80, FLIPR. The class given is cell-based. In outline: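 U937 or HEK293 cells expressing human C5aR, plated overnight, then preincubated 60 min with compound. After Fluo-4 Direct dye loading (50 min at 37 °C, 10 min at room temperature), intracellular calcium rise on FLIPR was triggered by human C5a agonist at EC80.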
(In general: A change in cytosolic calcium serves as a functional read-out for many receptors and channels.)

For assay [6], the target named is human C5a receptor (C5aR) (Homo sapiens (Human), UniProt P21730). Briefly: Inhibition of C5a-C5aR binding (biotinylated human C5a, U937/C5aR cells, FACS). The procedure, abridged: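 U937 cells stably expressing human C5aR, 3×10^6 cells/ml in PBS+0.1% BSA, were co-incubated with compound and biotinylated human C5a (30 nM, working solution) on ice for 120 min. Bound ligand was stained with FITC-streptavidin for 30 min on ice and read by flow cytometry.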

For assay [7], the system named is human C5a induced neutropenia. The assay is described as follows: C5a induced neutropenia in human C5aR knock-in mice model. To be noted: 0.3 mg/kg and 3 mg/kg, pre-dosed 2 hours before hC5a. It counts as in vivo. As for the experimental part: To study the efficacy of compounds in an animal model, human C5aR knock-in mice were created by replacing the coding region of mouse C5aR with human C5aR coding sequence. Intravenous injection of hC5a induced upregulation of adhesion molecules on blood vessel walls, leading to decreased neutrophils in the blood stream and attached to the vascular walls. Human C5aR knock-in mice were pre-dosed with vehicle or specific compound, and 2 hours later, human C5a ([…], ACROBiosystems) was administrated and 1 minute later neutrophils are quantified in peripheral blood.
The percent change in the number of neutrophils in the blood collected after C5a injection (121 min), relative to the sample collected prior to C5a injection (119 min). The plasma concentration of each compound is the average concentration prior to C5a injection of 3 individual mice.

human C5a receptor (C5aR), sequence (P21730 whole entry): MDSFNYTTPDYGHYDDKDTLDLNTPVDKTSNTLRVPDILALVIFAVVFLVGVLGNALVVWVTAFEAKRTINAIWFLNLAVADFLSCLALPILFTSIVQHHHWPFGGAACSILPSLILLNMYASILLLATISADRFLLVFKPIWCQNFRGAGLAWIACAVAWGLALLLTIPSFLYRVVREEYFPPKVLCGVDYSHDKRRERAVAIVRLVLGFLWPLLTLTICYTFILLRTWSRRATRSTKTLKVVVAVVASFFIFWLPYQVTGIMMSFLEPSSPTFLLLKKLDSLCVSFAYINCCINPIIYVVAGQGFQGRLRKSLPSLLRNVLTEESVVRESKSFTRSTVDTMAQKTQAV
T1 sequence (P21730 whole entry): as above

Consider `Cc1ccc(NC(=O)[C@H]2C[C@H]3CCC[C@H]3N(C(=O)c3c(C)cccc3F)[C@H]2c2ccc(NC3CCCC3)cc2)cc1C(F)(F)F` [Compound 47, (2R,3S,4aR,7aR)-2-(4-(cyclopentylamino)phenyl)-1-(2-fluoro-6-methylbenzoyl)-N-(4-methyl-3-(trifluoromethyl)phenyl)octahydro-1H-cyclopenta[b]pyridine-3-carboxamide], for which the “rescue of neutropenia induced by human C5a” value in assay [1] is on record as “effectively rescued the neutropenia”. Besides, in assay [2] (2 hours after dosing), the “CD11b upregulation on neutrophil” value is given as “blocked”. In addition, the IC50 (as a rule, the concentration that inhibits the measured activity by half) was under 50 nM at C5aR [3], under 50 nM at C5aR [5] and 50 to 500 nM in assay [6]. Also, the 50% effective concentration (EC50) (as a rule, the concentration giving half of the maximal effect) at 10 mg/kg in assay [4] came to 276 nM. In assay [4], the “C5a induced CD11b upregulation on granulocytes ex-vivo” value is recorded as “blocked”.
Consider `Cc1cccc(F)c1C(=O)N1[C@@H]2CCC[C@@H]2C[C@H](C(=O)Nc2ccc3c(cnn3C)c2)[C@@H]1c1ccc(NC2CCCC2)cc1` [Compound 49, (2R,3S,4aR,7aR)-2-(4-(cyclopentylamino)phenyl)-1-(2-fluoro-6-methylbenzoyl)-N-(1-methyl-1H-indazol-5-yl)octahydro-1H-cyclopenta[b]pyridine-3-carboxamide], for which the “rescue of neutropenia induced by human C5a” value in assay [1] and in assay [7] was “effectively rescued the neutropenia” in each case. Besides, the “CD11b upregulation on neutrophil” value in assay [2] (2 hours after dosing) is “blocked”; in assay [2] (2 hours and 12 hours post-dosing), “blocked”. The half-maximal inhibitory concentration (IC50) at C5aR [3] was under 50 nM; on C5aR [5], 500 to 2000 nM; in assay [6], under 50 nM. Moreover, in assay [4], the half-maximal effective concentration (EC50) at 10 mg/kg was determined as 256 nM. In addition, the “C5a induced CD11b upregulation on granulocytes ex-vivo” value in assay [4] was “blocked”.
As to `Cc1cccc(F)c1C(=O)N1[C@@H]2CCC[C@@H]2C[C@H](C(=O)Nc2ccc3c(cnn3C)c2)[C@@H]1c1ccc(NC2CCOCC2)cc1` [Compound 89, (2R,3S,4aR,7aR)-1-(2-fluoro-6-methylbenzoyl)-N-(1-methyl-1H-indazol-5-yl)-2-(4-((tetrahydro-2H-pyran-4-yl)amino)phenyl)octahydro-1H-cyclopenta[b]pyridine-3-carboxamide], in assay [2] (2 hours after dosing), the “CD11b upregulation on neutrophil” value is given as “blocked”. The IC50 on C5aR [3] was under 50 nM; at C5aR [5], 500 to 2000 nM; in assay [6] it was under 50 nM.
As for `Cc1cccc(F)c1C(=O)N1CCC[C@H](c2nc3ccc(C(C)(C)C)cc3[nH]2)[C@@H]1c1ccc(NC2CCCC2)cc1` [Compound 180, ((2R,3S)-3-(6-(tert-butyl)-1H-benzo[d]imidazol-2-yl)-2-(4-(cyclopentylamino)phenyl)piperidin-1-yl)(2-fluoro-6-methylphenyl)methanone], the IC50 on C5aR [3] was under 50 nM; at C5aR [5] it was 2000 to 10000 nM; in assay [6], 2000 to 5000 nM.
